The record followed here is patent US6485722B1, “Method for selective engraftment of drug-resistant hematopoietic stem cells” (Regents of the University of Minnesota, priority 1996, dated 2002).

Data set [1] in a line: MTX toxicity in irradiated mice transplanted with normal (non-transgenic) FVB/N marrow. On the procedure:
(§1) Male marrow is used as competitor so that Y chromosome sequences can be used as a quantitative signal for the presence of competitor-derived material at the time of analysis, while the DHFR transgene can be used as a quantitative signal for presence of DHFR-transgenic-derived material.
(§2) Animals in each of the three groups were administered either PBS or MTX at an increasing dose schedule culminating at 4 mg/kg/day. MTX administration was continued out to 60 days post-transplant. […] After 60 days, MTX administration is stopped. A small number of animals were sacrificed at this time to collect marrow samples for subsequent analysis, but most of the animals were maintained for an additional 2 months. At 4 months post-transplant, all surviving animals were sacrificed and bone marrow harvested. Each marrow sample collected was resuspended and then injected into 5 lethally-irradiated secondary female FVB/N recipients (2×10^6 donor cells per secondary recipient), saving the leftover marrow for subsequent molecular analysis. Secondary recipients were maintained for an additional 4 months before sacrificing and harvesting marrow samples.

Data set [2] concerns stem cells expressing a MTX-resistant DHFR. The experiment in a line: Competitive repopulation with 50/50 mixture of normal and DHFR transgenic marrow, Southern blot of marrow DNA. The class given is in vivo, FVB/N mice. The procedure:
as §1, §2

For `CN(Cc1cnc2nc(N)nc(N)c2n1)c1ccc(C(=O)N[C@@H](CCC(=O)O)C(=O)O)cc1` [MTX, methotrexate], in data set [1] (0.25 mg/kg/day for 1-4 days, 0.5 mg/kg/day next four days, then 1.0 mg/kg/day, recipients of non-transgenic marrow), the “toxicity of low dose MTX” value was “caused hematopoietic toxicity”. For the same compound, the “time at which animals succumb to MTX induced toxicity” value in data set [1] (irradiated (900 rads) mice transplanted with 10^7 normal FVB/N marrow cells, MTX increasing dose schedule culminating at 4 mg/kg/day, all animals) is 15-30 days post-transplant. In addition, in data set [1] (mouse, in vivo, 4 mg/kg/day), the “toxicity of high dose MTX” value is “causes not only hematopoietic toxicity but gastrointestinal toxicity as well”. Besides, the “DHFR transgene copy number in primary recipients” value in data set [2] (animals transplanted with transgenic marrow, MTX rather than PBS) is “substantial increase”. Besides, in data set [2] (primary transplant 50% normal / 50% DHFR transgenic marrow, MTX up to 4 mg/kg/day for 60 days, secondary recipients analysed 4 months after secondary transplant), the “secondary recipients showing a substantial contribution of transgenic marrow” value was 5 out of 5.
